Assay results taken from ChEMBL document CHEMBL3507680, “University of Dundee, Gates Library screen for HepG2 cell viability”.

Test: Human HepG2 cell viability assay in 384 well format
Assay type: toxicity, cell-based
Set-up: dose 125 nL, time 70.5 hour; cytotoxicity at 70.5 h: concentration not given beside the values
Conditions: HepG2 cells, read-out: Inhibition

SMILES	cytotoxicity at 70.5 h [%]
c1nc2n(n1)CC(NCc1nc(-c3ccsc3)no1)CC2 (stereo not drawn)	-8.53
CC(C)c1nc2cc(NC(=O)c3n[nH]c4c3CCC4)ccc2n1C	-9.08
CN1C(=O)CCC12CCN(S(=O)(=O)c1ccccc1)CC2	-13.4
CCCNC(=O)C1CCN(CC(O)c2ccccc2)CC1 (stereo not drawn)	-10.6
O=C(NCCNc1cnccn1)N1CC=C(c2ccc(O)cc2)CC1	2.47
COc1cccc(-c2n[nH]c3c2CN(C(=O)C2=C(C)OCCO2)CC3)c1	-4.06
CN(CCn1nc2ccccn2c1=O)CC(=O)N(C)C1CCCCC1	2.32
Cc1cc(NC(=O)CNC2CCc3nc(C(C)C)nn3C2)no1 (stereo not drawn)	-6.53
COC(CNC(=O)C1CCCC1)c1ccc(C)s1 (stereo not drawn)	-1.8
CCC(O)CN1CCN(C(=O)Cc2ccccc2Cl)CC1 (stereo not drawn)	-0.929
C=C(C)COc1cccc(C(=O)N(CC)Cc2nccn2C)c1	2.21
Cc1cc(C2CCCN(C(=O)c3ccc(C)[nH]c3=O)C2)n[nH]1 (stereo not drawn)	-13.9
CCOCc1nc(-c2ccc(F)cc2Cl)n(C)n1	-15.1
Cn1nc(C2CCCN2)c2c(C(=O)NCC(F)(F)F)cc(C3CC3)nc21 (stereo not drawn)	17.1
COCCN(Cc1coc(-c2ccc(OC)cc2)n1)C1CC1	-1.17
CCc1ccc(C2COCCN2C(=O)Nc2cc(C)on2)o1 (stereo not drawn)	-3.5
CCc1cnc(N2C[C@H]3C[C@H](C(=O)NCC(C)C)[C@@H](C2)O3)nc1	2.56
O=c1[nH]cc(N2CCCCCC2)c(=O)[nH]1	9.28
COc1cccc(CNCc2c(C(C)C)nn(C)c2N(C)C)c1OC	-3.04
CNC(=O)[C@@H](C1CCCCC1)N1CCC[C@H]1C(=O)N(C)CCN(C)C	-4.67
Cc1cc(CN2CCN(C(=O)NCCc3csc(C)n3)CC2)on1	-11.6
CCc1ncc(CN2CCCN(CC3CC3)C(C(C)C)C2)cn1 (stereo not drawn)	9.86
Cc1n[nH]c(C)c1NC(=O)C1CCCN(C(=O)NCC(C)C)C1 (stereo not drawn)	-5.82

SMILES	cytotoxicity at 70.5 h [%]
CCc1c(C)sc2c1c(N)nc(=O)n2CCCN(C)C	5.31
Cn1cc(CN2CCCC23CCN(C(=O)c2ccccn2)CC3)cn1	18.2
FC(F)(F)c1ccc(-c2noc3c2CN(CC2CCCO2)CC3)cc1 (stereo not drawn)	-10.2
O=C(O)c1cccc2c(Br)cccc12	-0.692
CC(Cn1ccnc1)NCc1csc2c1CCCC2 (stereo not drawn)	-0.368
O=C(C1CCN(c2snc3ccccc23)CC1)N1CCCCCC1	28.1
Nc1ccnc(N2CCC(c3nccn3CC3CC3)CC2)n1	17.6
CC(C)C(=O)N1CCN(S(C)(=O)=O)CC2(CC(=O)N(C)C2)C1 (stereo not drawn)	-7.11
Cc1cc(S(=O)(=O)N2CCCc3cc(F)cc(F)c32)sc1C(=O)O	11.1
C[C@@H]1CN(C(=O)CCCN2CCCC2)CC[C@@]1(O)C1CCOCC1	-3.8
CCc1nnc(CN(CC)C(=O)C2CCC(=O)N(C3CCCC3)C2)o1 (stereo not drawn)	-4.66
Cc1cc(C(=O)N(C)Cc2cnn(C)c2C)n(C)n1	14
NC(=O)CN1CCC(C(=O)NCc2ccc3nonc3c2)CC1	-14.2
CN(C)CCC1CCN(Cc2ccn(C)c(=O)c2)CC1	-4.16
CC(C)CS(=O)(=O)N1C[C@H]2C[C@H](C(=O)NCc3ccccc3)[C@@H](C1)O2	-7.71
CCCn1cc(C(=O)N2CCOC(c3nc(-c4cccs4)no3)C2)cn1 (stereo not drawn)	-4.18
COc1ccccc1CN1CC[C@]2(C[C@@H](OC)CO2)C1	-4.33
CNC(=O)Cc1coc(-c2ccc(F)cc2)n1	-16.9
CCn1c(C2CCCN(Cc3nccn3CCOC)C2)nn(C)c1=O (stereo not drawn)	-11.9
c1csc(CN2CCc3ncnc(C4CCOC4)c3CC2)c1 (stereo not drawn)	-8.76
Cc1cccc(-n2cc(CN3CCN(C)[C@@H]4CS(=O)(=O)C[C@@H]43)cn2)c1	-15.9
Oc1cc(C2CCNCC2)nc(-c2ccsc2)n1	-4.35
O=c1cc(CNS(=O)(=O)C2CC2)nc2n1CCCNC2	-2.64

SMILES	cytotoxicity at 70.5 h [%]
CN(C)CCOCc1cncc2c1CCN(C1CCOC1)C2 (stereo not drawn)	-4.13
CCN1CCN(C(=O)c2cc(C(=O)OC)nn2-c2ccccc2)CC1	0.312
COCCC(=O)N1CCCC(CCC(=O)NCc2cccc(OC)c2)C1 (stereo not drawn)	20.8
COc1ccc(C(=O)O)c(OCC(=O)NC(C)c2ccc(F)cc2)c1 (stereo not drawn)	-6.92
O=C(CN1CCc2c(ncn2C2CC2)C1)NC1CC1	-23.8
CCS(=O)(=O)N1CCC2(CC(=O)N(c3ccc4c(c3)OCO4)C2)C1 (stereo not drawn)	7.63
CN1CCCCc2c1nc1c(c2N)CCCC1	-5.71
CCNc1nc(C)c(C(=O)N(C)Cc2noc(C)n2)s1	11.7
c1cc(CN2CCCCC2)cc(NCc2cc[nH]n2)c1	7.51
Cc1nccc(-c2cccc(NCC(=O)N3CCOC(C)C3)c2)n1 (stereo not drawn)	-3.45
Cc1ccc(CN2CC[C@H]3C[C@H](C(=O)N4CCCO4)O[C@@H]3C2)o1	1.31
Cc1cc(C(=O)N2CCN(C(=O)CCC3CCCCC3)CC2)n(C)n1	-18.7
Cc1cc(C)n(CC2CCCN2C(=O)Cc2csc(C)n2)n1 (stereo not drawn)	-1.11
CCc1nc(CCNC(=O)Nc2ccc(C(=O)NC)cc2C)cs1	13.7
Cn1cnc2c1CCN(CC(O)c1ccc(S(C)(=O)=O)cc1)C2 (stereo not drawn)	-8.26
CN(C)S(=O)(=O)N1CCOC(c2cccc(-c3cncnc3)n2)C1 (stereo not drawn)	-10.8
CCC(C)C(=O)N(Cc1ccccn1)C1CC1 (stereo not drawn)	25.9
CCn1nc(C)c(CNC(=O)c2nnc3ccccc3n2)c1C	0.73
c1nc2n(c1CN1CCCCC1)CCN(C1CCOC1)CC2 (stereo not drawn)	-3.62
O=C(CCN1CCCCCC1c1ccco1)N1CCOCC1 (stereo not drawn)	-9.92
Cn1ncc(NC(=O)c2noc3c2CCCC3)c1C(N)=O	-5.51
Cc1nc2cc(=O)[nH]n2c(C)c1CNC(=O)C(C)Cc1ccccc1 (stereo not drawn)	3.77
COc1cnc(N2CCCC(c3ncc[nH]3)C2)nc1 (stereo not drawn)	-3.19

SMILES	cytotoxicity at 70.5 h [%]
Nc1ncccc1CN1C[C@@H](C(=O)O)[C@H](c2cccc(F)c2)C1	1.75
CC(=O)N1CCCN(C(=O)c2csc(-c3ccc(C)cc3C)n2)CC1	-4.64
Cc1ccc([C@@H]2CN(C(=O)c3csc(C)n3)C[C@H]2NC(=O)C2CC2)cc1	-12.3
CCc1nc(C)ncc1C(=O)N1CCOC(c2nc(C)n[nH]2)C1 (stereo not drawn)	-0.337
CC(C)C(=O)N1CCN(C(=O)CCc2nnc(-c3ccccc3)o2)CC1	-21.2
COc1cc(N2CCC3(CC2)CC(N2CCOCC2)CO3)ncn1 (stereo not drawn)	-2.9
CC(C)c1ncc(Cl)c(C(=O)N2CCN(C3CCCC3)CC2)n1	-3.22
CC(C)(CNc1ccc2ccc(F)cc2n1)NS(C)(=O)=O	-7.19
N#Cc1c(N2CCN(CC3CCOC3)CC2)nc2ccccn12 (stereo not drawn)	-1.45
O=C(NCc1ccco1)c1cc[n+]([O-])cc1	-4.13
Cc1cc(C)n(CCCN(C)c2cc(N(C)C)ncn2)n1	-7.08
CCc1nnc2ccc(NCC3(N4CCCCC4)CCOCC3)nn12	-7.09
O=C(Cc1cccc(O)c1)NC1CCN(c2cccc(Cl)c2)C1 (stereo not drawn)	-3.87
COc1ccc(CCN)cc1-c1ccc(C(N)=O)cc1	-6.83
CC(OCC1CC1)C(=O)NCc1ccc(Cn2ccnc2)cc1 (stereo not drawn)	-6.63
Cc1cccc(N2CCC(N3CCCC4(CN(C)C(=O)O4)C3)CC2)c1C (stereo not drawn)	-9.98
O=C1CO[C@H]2CN(S(=O)(=O)c3ccccc3)C[C@H]2N1Cc1ccccn1	-15
CCC1CCCCN1C(=O)Cn1nc(-c2ccc(C)o2)cc(N)c1=O (stereo not drawn)	-15.1
COc1ccc(-n2cccn2)c(CN2CCC(O)(CO)CC2)c1	-11.1
CN(C)C(=O)C1(CCCc2ccncc2)CCCN1 (stereo not drawn)	9.48
O=C(NC1CC1)N1CCC2(CC1)C(=O)NCCN2Cc1ccccc1	-13.6
Cc1cc(N2CCCC2c2cc(Nc3cnccn3)nc(C)n2)ncn1 (stereo not drawn)	-11.4
Cc1noc([C@@]23CCO[C@@H]2CCN(C(=O)CN(C)C)C3)n1	-0.0937

SMILES	cytotoxicity at 70.5 h [%]
O=C(c1cc(-n2cccn2)ccn1)N1CCOc2ccncc21	-0.581
CC(O)CN(C)C(=O)Nc1ccn(-c2cccc(C(F)(F)F)c2)n1 (stereo not drawn)	-3.19
COc1ccccc1CN1CC[C@H](c2nnc(-c3cncn3C)o2)C1	-1.04
CN1CCN(c2ccc(NC(=O)c3cccs3)c(C(F)(F)F)c2)CC1	-9.41
Fc1ccc2[nH]c(C3CCCN3CCc3ccccn3)nc2c1 (stereo not drawn)	-8.26
CCCc1nc(CN2CCCC2Cn2cncn2)no1 (stereo not drawn)	-6.08
c1ccc(-c2nccc(N3CCc4c(ncn4C4CC4)C3)n2)cc1	-17.8
O=C([C@@H]1CC[C@@H]2[C@@H](CCN2Cc2cccc(F)c2)O1)N1CCCCO1	5.95
Cc1noc(C)c1CN1CCc2ncc(CN3CCCC3)n2CC1	-5.92
O=C1CC(c2ccc3c(c2)OCO3)c2cn[nH]c2N1 (stereo not drawn)	-11.7
CC(C)C1=NOC2(CCN(C(=O)C3CCCC3)CC2)C1	-11.9
Cc1cc(N2CCC(c3ncc[nH]3)CC2)nc(N)n1	-2.19
CS(=O)(=O)c1ccccc1NCc1ccc(Cn2ccnc2)cc1	-0.289
CC(=O)N1CC(=O)N(c2cnn(C)c2)CC12CCN(Cc1nccs1)C2 (stereo not drawn)	-7.04
O=C(O)c1ccc(S(=O)(=O)Nc2ccccc2F)c(F)c1	-11
COc1ccc2cccc(CC(=O)NCCCc3n[nH]c(C)n3)c2c1	4.93
CCOc1cc(F)ccc1NC(=O)NCC(c1cnn(C)c1)N(C)C (stereo not drawn)	-0.683
O=C(c1cn(Cc2ccccc2)c2ncccc12)N1CCCCC1	3.09
Cc1nc(C)c(CN2CCOC(Cc3ccccc3Cl)C2)nc1C (stereo not drawn)	-2.34
CCCc1nc(N[C@H]2COC[C@@H]2N2CCCC2)c2cnn(C)c2n1	-7.83
O=C(NCc1ccc(C(=O)O)o1)c1ccc(F)cc1	0.996
